Source: patent US4088772A, “Methanodibenzocycloheptapyrroles” (E. I. Du Pont de Nemours and Company, priority 1975, dated 1978)
Where two headings read alike, the source gives them in different places.

Legend:
[1] = system: phenylquinone-induced writhing; test: Phenylquinone writhing test (analgesia); type: in vivo, mouse (Carworth CF1 S female); settings: Mus musculus
Excerpt: This mouse test is predictive of analgesic response in humans. [E. Siegmund, R. Cadmus and G. Lee, Proc. Soc.
ED50 values were obtained graphically from the data.

[2] = in vivo; settings: mouse, in vivo, po
Method: (§1) Groups of five Carworth CF1 S female mice, 16-20 g each, were fasted 16-22 hours before use. The mice were put in opaque plastic "shoe-box" cages 15-30 min. before injection, and then treated orally with 4, 12, 36, 108 and 324 mg/kg of the compound to be tested as a 13 mg/ml solution in 1% aqueous distilled water solution of methylcellulose (Methocel®). Each dose was given in a standard volume of 0.45 ml. Observations were made at 0.5, 2 and 24 hours after dosing. ED50 values were calculated for each parameter including death (LD50). The ED50 and LD50 values are the doses at which 50% of the naimals would be expected to respond.
(§2) The mouse is placed on a stainless steel wire mesh screen (8 × 12 inches, 3 mesh per inch, 1/4 inch mesh openings) "shoe-box" lid (1 inch high) and is observed for normal activities, such as nose movements, head movements with apparent visual examination of the area, and/or walking around on the screen. Absence of or marked depression of these activities for 5 seconds constitutes loss of exploratory activity.
(§3) The mouse is picked up by the tail and placed on the screen with its head facing the observer. Bilateral eyelid closure of 50% or more two seconds after placement is considered ptosis.
(§4) The mouse is placed with its front paws on the edge of a stainless steel "shoe-box" cover, 1 inch high, covered with adhesive tape. Failure to remove both paws from the cover's edge within 5 seconds constitutes catatonia.
(§5) The observer gently strokes the abdominal musculature of the mouse with thumb and forefinger. Flaccidity (or rarely, tenseness) is recorded.
(§6) The mouse is gently swung by the tail toward a horizontal 12 gauge wire tautly stretched 25 cm above the bench. After the mouse grasps the wire with its forepaws, its posterior end is held directly below the wire. A normal mouse grasps the wire with its forepaws and immediately lifts its hind limbs to the wire. Failure to grasp the wire with the forepaws in both trials constitutes loss of the grip reflex; failure to lift the hind limbs to grasp the wire with at least one hind paw within 5 seconds constitutes loss of the lift reflex.
(§7) The mouse is placed on the bar 10-20 cm horizontally and 9 cm vertically from a Galton whistle adjusted for 13 kc (5 mm on the whistle scale) and is subjected to several short bursts of sound.
(§8) An effective tranquilizer should induce little or no tremor response. […] Tremors include fine or coarse and intermittent or continuous tremors.

[3] = system: female white mice; test: animal or person; settings: Mus musculus, po, oral, mice
Method: as §1, §2, §3, §4, §5, §6, §7, §8

[4] = read-out: Catatonia ED50, Table 1
[5] = read-out: Exploratory Loss Visual ED50, Table 1
[6] = read-out: Muscle Tone ED50, Table 1
[7] = read-out: Reflexes Grip ED50, Table 1
[8] = read-out: Reflexes Lift ED50, Table 1
[9] = read-out: Reflexes Pinna ED50, Table 1

SMILES | ED50 ([1]; po, Table 1, mice) [mg/kg] | ED50 [2] [mg/kg] | LD50 at 24 h [2] [mg/kg] | ED50 [3, 4] [mg/kg] | ED50 [3, 5] [mg/kg] | ED50 [3, 6] [mg/kg] | ED50 ([3]; read-out: Ptosis ED50, Table 1) [mg/kg] | ED50 [3, 7] [mg/kg] | ED50 [3, 8] [mg/kg] | ED50 [3, 9] [mg/kg] | ED50 ([1]; Table 1, oral, mice) [mg/kg] | ED50 ([2]; Tremors ED50, Table 1, mice) [mg/kg]
c1ccc2c(c1)[C@@H]1C[C@@]3(CN(C[C@H]4C[C@H]5CC[C@@H]4C5)C[C@H]23)c2ccccc21 (relative stereo) [Example 36, 2-(2-Endo-bicyclo[2.2.1]heptylmethyl)-2,3,8,12b-tetrahydro-1H-3a,8-methanodibenzo[3,4:6,7]cyclohepta[1,2-c]pyrrole] | 9.8 | > 324 | > 324 | 60 | 60 | 60 | 20 | > 324 | 60 | 100 |  | 
C1=C[C@@H]2C[C@H]1C[C@H]2CN1C[C@@H]2c3ccccc3[C@@H]3C[C@@]2(C1)c1ccccc13 (relative stereo) [Example 37, 2-(2-Exo-bicyclo[2.2.1]hept-5-enylmethyl)-2,3,8,12b-tetrahydro-1H-3a,8-methanodibenzo[3,4:6,7]cyclohepta[1,2-c]pyrrole] | 2.4 | > 324 | 300 | 7 | 7 | 4 | ≤ 4 | 200 | 12 | 20 |  | 
C1=C[C@@H]2C[C@H]1C[C@@H]2CN1C[C@@H]2c3ccccc3[C@@H]3C[C@@]2(C1)c1ccccc13 (relative stereo) [Example 38, 2-(2-Endo-bicyclo[2.2.1]hept-5-enylmethyl)-2,3,8,12b-tetrahydro-1H-3a,8-methanodibenzo[3,4:6,7]cyclohepta[1,2-c]pyrrole] | 31 | > 324 | > 324 | 100 | 200 | 200 | 60 | > 324 | 200 | > 324 |  | 
c1ccc(CCN2C[C@@H]3c4ccccc4[C@@H]4C[C@@]3(C2)c2ccccc24)cc1 (relative stereo) [Example 39, 2-(2-Phenylethyl)-2,3,8,12b-tetrahydro-1H-3a,8-methanodibenzo[3,4:6,7]cyclohepta[1,2-c]pyrrole] | 22 | 300 | > 324 | 100 | 200 | > 324 | 200 | > 324 | 100 | 100 |  | 
c1ccc(OCCN2C[C@@H]3c4ccccc4[C@@H]4C[C@@]3(C2)c2ccccc24)cc1 (relative stereo) [Example 40, 2-(2-Phenoxyethyl)-2,3,8,12b-tetrahydro-1H-3a,8-methanodibenzo[3,4:6,7]cyclohepta[1,2-c]pyrrole] | 5.3 | > 324 | > 324 | 12 | 60 | 20 | 7 | > 324 | 20 | 12 |  | 
COCCN1C[C@@H]2c3ccccc3[C@@H]3C[C@@]2(C1)c1ccccc13 (relative stereo) [Example 41, 2-(2-Methoxyethyl)-2,3,8,12b-tetrahydro-1H-3a,8-methanodibenzo[3,4:6,7]cyclohepta[1,2-c]pyrrole] | 4.2 | > 324 | 300 | 20 | 20 | 36 | 20 | 200 | 36 | 20 |  | 
c1coc(CN2C[C@@H]3c4ccccc4[C@@H]4C[C@@]3(C2)c2ccccc24)c1 (relative stereo) [Example 42, 2-(2-Furylmethyl)-2,3,8,12b-tetrahydro-1H-3a,8-methanodibenzo[3,4:6,7]cyclohepta[1,2-c]pyrrole] | 26 | > 324 | 300 | 36 | 60 | 20 | 20 | > 324 | 200 | 60 |  | 
c1ccc2c(c1)[C@@H]1C[C@@]3(CN(C4CC4)C[C@H]23)c2ccccc21 (relative stereo) [Example 46, 2-Cyclopropyl-2,3,8,12b-tetrahydro-1H-3a,8-methanodibenzo[3,4:6,7]cyclohepta[1,2-c]pyrrole] |  |  | > 324 | 200 | 200 | 200 | 60 | 300 | 200 | 300 | 90 | > 324
c1ccc2c(c1)[C@@H]1C[C@@]3(CN(C4CCC4)C[C@H]23)c2ccccc21 (relative stereo) [Example 47, 2-Cyclobutyl-2,3,8,12b-tetrahydro-1H-3a,8-methanodibenzo[3,4:6,7]cyclohepta[1,2-c]pyrrole] |  |  | > 324 | 60 | 60 | 60 | 36 | 200 | 60 | 36 | 9.6 | > 324
c1ccc2c(c1)[C@@H]1C[C@@]3(CN(C4CCCC4)C[C@H]23)c2ccccc21 (relative stereo) [Example 48, 2-Cyclopentyl-2,3,8,12b-tetrahydro-1H-3a,8-methanodibenzo[3,4:6,7]cyclohepta[1,2-c]pyrrole] |  |  | > 324 | 36 | 100 | 100 | 60 | 200 | 60 | 60 | 38 | > 324
CC(C)N1C[C@@H]2c3ccccc3[C@@H]3C[C@@]2(C1)c1ccccc13 (relative stereo) [Example 49, 2-Isopropyl-2,3,8,12b-tetrahydro-1H-3a, 8-methanodibenzo[3,4:6,7]cyclohepta[1,2-c]pyrrole] |  |  | 200 | 60 | 60 | 7 | 12 | 200 | 36 | 20 | 10.8 | > 324
c1ccc2c(c1)[C@@H]1C[C@@]3(CN(CC4C5CC6CC(C5)CC4C6)C[C@H]23)c2ccccc21 (relative stereo) [Example 53, 2-(2-Adamantylmethyl)-2,3,8,12b-tetrahydro-1H-3a,8-methanodibenzo[3,4:6,7]cyclohepta[1,2-c]pyrrole] | 94 | > 524 | > 324 | 36 | 60 | 100 | 300 | > 324 | 300 | 100 |  | 
